Measurements as given in US8889874B2, “Imidazolone-chalcone derivatives as potential anticancer agent and process for the preparation thereof” (Council of Scientific and Industrial Research, priority 2010, dated 2014).

How the values were obtained:
Type in all cases: cell-based, human
A498 (renal) = assay: NCI anticancer screen, SRB assay, 48 h
Summary of the method: (§1)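 Sulforhodamine B protein assay read cell growth after 48 h of continuous compound exposure. Dose-response curves per cell line used at least five 10-fold-diluted concentrations, within a panel of fifty-three human lines from nine tumour types.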

HCC-2998 (colon) = assay: NCI anticancer screen, SRB assay, 48 h
Summary of the method: as §1

HCT-116 (colon) = assay: NCI anticancer screen, SRB assay, 48 h
Summary of the method: as §1

HCT-15 (colon) = assay: NCI anticancer screen, SRB assay, 48 h
Summary of the method: as §1

[1] = test system: HOP-62 (non-small cell lung); assay: NCI anticancer screen, SRB assay, 48 h
Summary of the method: as §1

HS 578T (breast) = assay: NCI anticancer screen, SRB assay, 48 h
Summary of the method: as §1

[2] = test system: K-562 (leukemia cell line); assay: NCI anticancer screen, SRB assay, 48 h
Summary of the method: as §1

MDA-MB-231/ATCC (breast) = assay: NCI anticancer screen, SRB assay, 48 h
Summary of the method: as §1

MDA-MB-435 (melanoma) = assay: NCI anticancer screen, SRB assay, 48 h
Summary of the method: as §1

[3] = test system: NCI-H23 (non-small cell lung); assay: NCI anticancer screen, SRB assay, 48 h
Summary of the method: as §1

[4] = test system: NCI-H460 (non-small cell lung); assay: NCI anticancer screen, SRB assay, 48 h
Summary of the method: as §1

OVCAR-4 (ovarian) = assay: NCI anticancer screen, SRB assay, 48 h
Summary of the method: as §1

SK-MEL-28 (melanoma) = assay: NCI anticancer screen, SRB assay, 48 h
Summary of the method: as §1

SNB-75 (CNS) = assay: NCI anticancer screen, SRB assay, 48 h
Summary of the method: as §1

TD-47D (breast) = assay: NCI anticancer screen, SRB assay, 48 h
Summary of the method: as §1

UO-31 (renal) = assay: NCI anticancer screen, SRB assay, 48 h
Summary of the method: as §1

Breast cancer cell lines = assay: NCI anticancer screen, SRB assay, panel summary
Experimental: (§2) Some of biological activity studies were carried out at the National Cancer Institute (NCI), Maryland, USA.
(§3) The compounds were evaluated for anticancer activity against fifty three human cancer cells derived from nine cancer types (leukemia cell line, non-small-cell lung cell line, colon cell line, CNS cell line, melanoma cell line, ovarian cell line, prostate cell line, and breast cancer cell line) as shown in Table 1. For each compound, dose response curves for each cell line were measured at a minimum of five concentrations at 10 fold dilutions. A protocol of 48 h continuous drug exposure was used and a sulforhodamine B (SRB) protein assay was used to estimate cell viability or growth.

CNS cancer cell lines = assay: NCI anticancer screen, SRB assay, panel summary; conditions: CNS panel
Experimental: as §2, §3

Colon cancer cell lines = assay: NCI anticancer screen, SRB assay, panel summary; conditions: Colon panel
Experimental: as §2, §3

[5] = test system: Leukemia cancer cell lines; assay: NCI anticancer screen, SRB assay, panel summary; conditions: Leukemia panel
Experimental: as §2, §3

[6] = test system: Melanoma cancer cell lines; assay: NCI anticancer screen, SRB assay, panel summary; conditions: Melanoma panel
Experimental: as §2, §3

[7] = test system: Non-small cell lung cancer cell lines; assay: NCI anticancer screen, SRB assay, panel summary
Experimental: as §2, §3

[8] = test system: Ovarian cancer cell lines; assay: NCI anticancer screen, SRB assay, panel summary
Experimental: as §2, §3

Renal cancer cell lines = assay: NCI anticancer screen, SRB assay, panel summary
Experimental: as §2, §3

[9] = 48 h exposure, SRB, read-out: GI50
[10] = log of concentration in mol/L causing 50% inhibition of net cell growth
[11] = log of concentration leading to 50% net cell death
[12] = log of concentration resulting in total inhibition of net cell growth

SMILES: COc1cc(/C=C/C(=O)c2cccc(-n3cc(-c4ccc(Cl)cc4)[nH]c3=O)c2)cc(OC)c1OC [5f, 4-(4-chlorophenyl)-1-3-[(E)-3-(3,4,5-trimethoxyphenyl)-2-propenoyl]phenyl-2,3-dihydro-1H-2-imidazolone]
- pGI50 (-log of molar concentration causing 50% inhibition of net cell growth) (A498 (renal)): 4.52
- GI50 (A498 (renal); [9]): 30.2 µM
- pGI50 (-log of molar concentration causing 50% inhibition of net cell growth) (HCC-2998 (colon)): 5.61
- GI50 (HCC-2998 (colon); [9]): 2.46 µM
- pGI50 (-log of molar concentration causing 50% inhibition of net cell growth) (HCT-116 (colon)): 5.86
- GI50 (HCT-116 (colon); [9]): 1.39 µM
- pGI50 (-log of molar concentration causing 50% inhibition of net cell growth) (HCT-15 (colon)): 5.41
- GI50 (HCT-15 (colon); [9]): 3.85 µM
- pGI50 (-log of molar concentration causing 50% inhibition of net cell growth) [1]: 4.63
- pGI50 (-log of molar concentration causing 50% inhibition of net cell growth) (HS 578T (breast)): 5.22
- GI50 (HS 578T (breast); [9]): 5.96 µM
- pGI50 (-log of molar concentration causing 50% inhibition of net cell growth) [2]: 5.43
- GI50 [2, 9]: 3.69 µM
- pGI50 (-log of molar concentration causing 50% inhibition of net cell growth) (MDA-MB-231/ATCC (breast)): 4.86
- GI50 (MDA-MB-231/ATCC (breast); [9]): 13.8 µM
- pGI50 (-log of molar concentration causing 50% inhibition of net cell growth) (MDA-MB-435 (melanoma)): 5.44
- GI50 (MDA-MB-435 (melanoma); [9]): 3.63 µM
- pGI50 (-log of molar concentration causing 50% inhibition of net cell growth) [3]: 5.45
- GI50 [3, 9]: 3.56 µM
- pGI50 (-log of molar concentration causing 50% inhibition of net cell growth) [4]: 5.43
- GI50 [4, 9]: 3.74 µM
- pGI50 (-log of molar concentration causing 50% inhibition of net cell growth) (OVCAR-4 (ovarian)): 4.94
- GI50 (OVCAR-4 (ovarian); [9]): 11.4 µM
- pGI50 (-log of molar concentration causing 50% inhibition of net cell growth) (SK-MEL-28 (melanoma)): 4.96
- GI50 (SK-MEL-28 (melanoma); [9]): 10.9 µM
- pGI50 (-log of molar concentration causing 50% inhibition of net cell growth) (SNB-75 (CNS)): 4.69
- pGI50 (-log of molar concentration causing 50% inhibition of net cell growth) (TD-47D (breast)): 5.18
- GI50 (TD-47D (breast); [9]): 6.65 µM
- pGI50 (-log of molar concentration causing 50% inhibition of net cell growth) (UO-31 (renal)): 5.15
- GI50 (UO-31 (renal); [9]): 7.03 µM
- mean graph midpoint (MG_MID) of Log10 LC50 (Breast cancer cell lines): 4.11
- mean graph midpoint (MG_MID) of Log10 GI50 (Breast cancer cell lines; Breast panel, log of concentration in mol/L causing 50% inhibition of net cell growth): 5.18
- mean graph midpoint (MG_MID) of Log10 TGI (Breast cancer cell lines; Breast panel, log of concentration resulting in total inhibition of net cell growth): 4.38
- mean graph midpoint (MG_MID) of Log10 GI50 (CNS cancer cell lines; [10]): 5.08
- mean graph midpoint (MG_MID) of Log10 LC50 (CNS cancer cell lines; [11]): 4.24
- mean graph midpoint (MG_MID) of Log10 TGI (CNS cancer cell lines; [12]): 4.50
- mean graph midpoint (MG_MID) of Log10 GI50 (Colon cancer cell lines; [10]): 5.53
- mean graph midpoint (MG_MID) of Log10 LC50 (Colon cancer cell lines; [11]): 4.76
- mean graph midpoint (MG_MID) of Log10 TGI (Colon cancer cell lines; [12]): 5.15
- mean graph midpoint (MG_MID) of Log10 GI50 [5, 10]: 5.42
- mean graph midpoint (MG_MID) of Log10 TGI [5, 12]: 4.00
- mean graph midpoint (MG_MID) of Log10 GI50 [6, 10]: 5.17
- mean graph midpoint (MG_MID) of Log10 LC50 [6, 11]: 4.24
- mean graph midpoint (MG_MID) of Log10 TGI [6, 12]: 4.56
- mean graph midpoint (MG_MID) of Log10 LC50 [7]: 4.06
- mean graph midpoint (MG_MID) of Log10 GI50 ([7]; Non-small cell lung panel, log of concentration in mol/L causing 50% inhibition of net cell growth): 4.72
- mean graph midpoint (MG_MID) of Log10 TGI ([7]; Non-small cell lung panel, log of concentration resulting in total inhibition of net cell growth): 4.28
- mean graph midpoint (MG_MID) of Log10 LC50 [8]: 4.22
- mean graph midpoint (MG_MID) of Log10 GI50 ([8]; Ovarian panel, log of concentration in mol/L causing 50% inhibition of net cell growth): 5.26
- mean graph midpoint (MG_MID) of Log10 TGI ([8]; Ovarian panel, log of concentration resulting in total inhibition of net cell growth): 4.62
- mean graph midpoint (MG_MID) of Log10 LC50 (Renal cancer cell lines): 3.73
- mean graph midpoint (MG_MID) of Log10 GI50 (Renal cancer cell lines; Renal panel, log of concentration in mol/L causing 50% inhibition of net cell growth): 5.15
- mean graph midpoint (MG_MID) of Log10 TGI (Renal cancer cell lines; Renal panel, log of concentration resulting in total inhibition of net cell growth): 4.55
